According to patent US6420363B1, “Mono- or polyenic carboxylic acid derivatives” (Eisai Co., Ltd., priority 1994, dated 2002):

Assays:
[1] = tested on: HL60 cells; assay: Antagonism against all-trans retinoic acid in inducing the differentiation of HL60 cells (CD11b-positive cells, flow cytometry); assay type: cell-based; details: Homo sapiens, HL-60, 120 h; CD11b-positive cells induced by 10 nM all-trans retinoic acid, 5 days
Text: Antagonism Against All-trans Retinoic Acid in Inducing the Differentiation of HL60 Cells
It is known that human promyelocytic leukemia cells HL60 differentiate into granulocyte-like cells in the presence of all-trans retinoic acid (Breitman, T., Selonick, S., and Collins, S., Proc. Natl. Acad. Sci. U.S.A. 77, 2936(1980)). In general, cells allow specific differentiation antigens to be expressed on the cell surfaces when they have achieved differentiation. When HL60 cells differentiate into granulocyte-like cells, CD11b which is a granulocyte/monocyte discriminating antigen is expressed on the cell surfaces (Fontana, J A., Reppuci, A., Durham, J P., and Mirand, D., Cancer Res. 46, 2469-2473 (1986)). The antagonism of a test compound against the differentiation into granulocyte-like cells induced by all-trans retinoic acid was studied by utilizing this phenomenon.
HL60 cells were cultured and maintained in a medium prepared by adding 10% of inactivated fetal bovine serum, 1 mM of sodium pyridinecarboxylate, 50 μM of β-mercaptoethanol, 100 IU/ml of penicillin and 100 μg/ml of streptomycin to RPMI1640 (culture medium formulated by Rosewell Park Memorial Institute).
An HL60 cell suspension (1×10^5 cells/ml) was put in a 48-well plate in an amount of one ml per unit well, followed by the addition of all-trans retinoic acid in a concentration of […] and a retinoid antagonist in various concentrations. The resulting mixtures were cultured in a 5% CO2-air incubator for 5 days. After the completion of the culture, the cells in each well was recovered into a test tube, followed by the addition of an FITC-labeled monoclonal antibody against CD11b (which is a specific antigen against glanulocytes and monocytes). The resulting cell suspension was fixed with 0.2% paraformaldehyde. The fixed cell suspension thus obtained was examined for the content of CD11b-positive cells in the HL60 cell population of each well by flow cytometry (Miller, L. J., Schwarting, R., and Springer, T A., J. Immunol. 137, 2891-2900 (1986)). The compounds which will be described below lowered the content of CD11b-positive cells induced by 10 nM all-trans retinoic acid dependently on the concentration.

[2] = molecular target: T1, all-trans retinoic acid receptors (RAR) (Homo sapiens, UniProt P10276); assay: Receptor binding assay using nuclear extract fraction of human promyelocytic leukemia cell HL60; details: inhibition of specific binding of 3H-all-trans retinoic acid, 4° C., 16 hours
T1 construct: determined by the use of the nuclear extract fraction of HL60; endogenous in cells; host or cells: HL60 human promyelocytic leukemia cells, nuclear extract fraction
T1 sequence (P10276 1-462): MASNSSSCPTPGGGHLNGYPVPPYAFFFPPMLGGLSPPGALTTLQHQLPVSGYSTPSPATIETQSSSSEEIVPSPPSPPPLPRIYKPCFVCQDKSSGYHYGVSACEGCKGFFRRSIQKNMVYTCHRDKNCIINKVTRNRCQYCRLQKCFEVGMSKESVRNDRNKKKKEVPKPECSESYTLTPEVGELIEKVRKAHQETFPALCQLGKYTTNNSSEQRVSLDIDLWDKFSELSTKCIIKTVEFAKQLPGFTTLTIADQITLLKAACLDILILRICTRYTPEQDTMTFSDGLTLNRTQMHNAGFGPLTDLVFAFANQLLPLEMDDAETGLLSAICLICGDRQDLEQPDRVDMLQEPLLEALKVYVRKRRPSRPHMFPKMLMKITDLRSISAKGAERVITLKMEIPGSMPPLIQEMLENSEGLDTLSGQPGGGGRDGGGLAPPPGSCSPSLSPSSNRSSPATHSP
Experimental: Receptor Binding Assay Using Human Promyelocytic Leukemia Cell HL60
It is known that all-trans retinoic acid receptors (retinoic acid receptor: RAR) are is present in the nuclei of HL60 cells (Clara Nervi et al., Proc. Natl. Acad. Sci. U.S.A. 86, 5854(1989)). Therefore, the specific binding of all-trans retinoic acid for RAR was determined by the use of the nuclear extract fraction of HL60, and each test compound was examined for the ability to bind RAR by determining the inhibition against the specific binding.
The nuclear extract fraction was prepared as follows.
HL60 cells (5×10^8) were suspended in 15 ml of solution A (sodium phosphate (pH7.4): 5 mM, monothioglycerol: 10 mM, glycerol: 10% (v/v), phenylmethylsulfonyl fluoride (PMSF): 1 mM, aprotinin: 10 μg/ml, and leupeptin: 25 μg/ml). The obtained suspension was homogenized by the use of a homogenizer and centrifuged to remove the resulting supernatant. The sediment thus formed was suspended in 15 ml of solution B (Tris-HCl(pH8.5): 10 mM, monothioglycerol: 10 mM, glycerol: 10% (v/v), PMSF: 1 mM, aprotinin: 10 μg/ml, leupeptin: 25 μg/ml, and KCl: 0.8 M). The obtained suspension was allowed to stand at 4° C. for one hour, and subjected to ultracentrifugation (100,000×g, 4° C., 1 hr). The obtained supernatant was stored as the nuclear extract fraction in a frozen state at −80° C. until the use (METHODS IN ENZYMOLOGY, 189, 248).
The receptor binding assay was conducted as follows.
180 μl of the above fraction and 10 μl of a dilution of all-trans retinoic acid or a test compound were added to each well of a 96-well plate made of polypropylene, followed by the addition of 10 μl of 10 nM^3H-all-trans retinoic acid. The resulting plate was allowed to stand at 4° C. for 16 hours. A solution containing 3% of charcoal and 0.3% of dextran was added to the resulting reaction mixture. The mixture thus obtained was centrifuged to remove free ^3H-all-trans retinoic acid. The radioactivity of the resulting supernatant was determined by the use of a scintillation counter. The specific binding of ^3H-all-trans retinoic acid for RAR was determined by assuming the radioactivity found when 200 times as much all-trans retinoic acid was added to be the non-specific binding and subtracting it from the radioactivity determined above. The compounds which will be described below inhibited the binding of ^3H-all-trans retinoic acid dependently on the concentration.

IC50 [1] [nM] | IC50 [2] [nM] | melting point [°C] | SMILES
130 | 13 | – | COC(=O)/C=C(C)/C=C/C(F)=C(/C)c1ccc2c(c1)CC(C)CN2C(C)C (stereo not shown) [Example 14, Methyl (E,E,E)-7-[1-(1-methylethyl)-3-methyl-1,2,3,4-tetrahydroquinolin-6-yl]-6-fluoro-3-methyl-octa-2,4,6-trienoate]
– | – | 289 to 290 | CC1(C)CCC(C)(C)c2c1sc1c2-c2c(c(-c3ccc(C(=O)O)cc3)cn2Cc2cccnc2)CC1 [Example 210]

The remaining lines, values behind:

SMILES | IC50 [1] [nM] | IC50 [2] [nM] | melting point [°C]
COC(=O)/C=C(C)/C=C/C(F)=C(/C)c1ccc2c(c1)C(C)CCN2C(C)C (stereo not shown) [Example 8, Methyl (E,E,E)-7-[1-(1-methylethyl)-4-methyl-1,2,3,4-tetrahydroquinolin-6-yl]-6-fluoro-3-methyl-octa-2,4,6-trienoate] | 470 | 17 | –
CC(/C=C/C(F)=C(/C)c1ccc2c(c1)C(C)CCN2C(C)C)=C\C(=O)O (stereo not shown) [Example 9, (E,E,E)-7-[1-(1-Methylethyl)-4-methyl-1,2,3,4-tetrahydroquinolin-6-yl]-6-fluoro-3-methyl-octa-2,4,6-trienoic acid] | 880 | > 50 | –
CCOC(=O)/C(F)=C(/C)c1ccc2c(c1)CC(C)CN2C(C)C (stereo not shown) [Example 13, Ethyl (E)-3-[1-(1-methylethyl)-3-methyl-1,2,3,4-tetrahydroquinolin-6-yl]-2-fluoro-2-butenoate] | 29 | 12.5 | –
CC(/C=C/C(F)=C(/C)c1ccc2c(c1)CCCN2C(C)C)=C\C(=O)O [Example 5, (E,E,E)-7-[1-(1-methylethyl)-1,2,3,4-tetrahydroquinolin-6-yl]-6-fluoro-3-methyl-octa-2,4,6-trienoic acid] | 39 | 5.4 | –
CC(/C=C/C(C)=C/c1ccc2c(c1)CCCN2C(C)C)=C\C(=O)O [Example 4, (E,E,E)-7-[1-(1-methylethyl)-1,2,3,4-tetrahydroquinolin-6-yl]-3,6-dimethyl-hepta-2,4,6-trienoic acid] | 74 | 20 | –
